Entries after “also recorded” stand apart in the source; their conditions may differ. Ends that are not written are not given here. * marks the point of attachment. Biotin = O=C1N[C@H]2[C@H](CS[C@H]2CCCCC(=O)*)N1
B1: FlaB: flagellin B (FlaB) derived from Vibrio vulnificus, SEQ ID NO: 23 (protein)
chain: MAVNVNTNVAAMTAQRYLNNANSAQQTSMERLSSGFKINSAKDDAAGLQISNRLNVQSRGLDVAVRNANDGISIAQTAEGAMNETTNILQRMRDLSLQSANGSNSKSERVAIQEEVTALNDELNRIAETTSFGGNKLLNGTYGTKAMQIGADNGEAVMLSLKDMRSDNVMMGGVSYQAEEGKDKNWNVAAGDNDLTIALTDSFGNEQEIEINAKAGDDIEELATYINGQTDLVKASVGEGGKLQIFAGNNKVQGEIAFSGSLAGELGLGEGKNVTVDTIDVTTVQGAQESVAIVDAALKYVDSHRAELGAFQNRFNHAISNLDNINENVNASKSRIKDTDFAKETTQLTKTQILSQASSSILAQAKQAPNSALSLLG
modifications: FlaB (F)
B2: EF: recombinant fusion of four copies of E7ΔNLS and FlaB, SEQ ID NO: 24 (protein)
chain: MIDGPAGQAEPDRAHYNIVTFCCKCDSTLRLCVQSTHVDIRTLEDLLMGTLGIVCPICSQKPEFIDGPAGQAEPDRAHYNIVTFCCKCDSTLRLCVQSTHVDIRTLEDLLMGTLGIVCPICSQKPVDIDGPAGQAEPDRAHYNIVTFCCKCDSTLRLCVQSTHVDIRTLEDLLMGTLGIVCPICSQKPVDIDGPAGQAEPDRAHYNIVTFCCKCDSTLRLCVQSTHVDIRTLEDLLMGTLGIVCPICSQKPKLMAVNVNTNVAAMTAQRYLNNANSAQQTSMERLSSGFKINSAKDDAAGLQISNRLNVQSRGLDVAVRNANDGISIAQTAEGAMNETTNILQRMRDLSLQSANGSNSKSERVAIQEEVTALNDELNRIAETTSFGGNKLLNGTYGTKAMQIGADNGEAVMLSLKDMRSDNVMMGGVSYQAEEGKDKNWNVAAGDNDLTIALTDSFGNEQEIEINAKAGDDIEELATYINGQTDLVKASVGEGGKLQIFAGNNKVQGEIAFSGSLAGELGLGEGKNVTVDTIDVTTVQGAQESVAIVDAALKYVDSHRAELGAFQNRFNHAISNLDNINENVNASKSRIKDTDFAKETTQLTKTQILSQASSSILAQAKQAPNSALSLLGLEHHHHHH
modifications: 4xE7deltaNLS::FlaB (EF)

Key:
[1] = tested on: CD11c^+-BMDC; assay: Cellular uptake of DC-targeting peptides by bone marrow-derived dendritic cells (FACS); type: cell-based, C57BL/6 mice; conditions: biotinylated peptides, 2 hours in RPMI 1640, FACS gated on CD11c+, compared with negative control
Protocol: (§1) Bone marrow (BM) cells were isolated by flushing femurs and tibias of C57BL/6 mice, and red blood cells (RBCs) were depleted by ACK lysis (Gibco, A10492-01). The cells were centrifuged and strained through a 70 μm filter before being resuspended in RPMI 1640 supplemented with 10% heat-inactivated FBS, 100 units/ml penicillin, and 100 μg/ml streptomycin. The cells were resuspended in complete RPMI 1640 culture medium containing GM-CSF (10 ng/ml; R&D Systems, 415-ML-010) and IL4 (10 ng/ml; R&D Systems, 415-ML-010), inoculated into a cell culture dish, and cultured at 37° C. and 5% CO2. The culture medium was refreshed every two days. On day 7 or 8, DCs loosely bound to the bottom were collected by gentle pipetting. Splenic DCs were prepared by CD11c+ MicroBeads MACS (Miltenyi Biotec, 130-052-001) following the manufacturer's instructions.
(§2) Peptides were synthesized using […] chemistry, purified using high-pressure liquid chromatography to more than 95% purity, and biotinylated in the side chain (AnyGen Inc., South Korea). Peptides were dissolved in appropriate solvents according to the manufacturer's instructions to a concentration of 0.5 mg/ml. To test CD11c^+ cell targeting by the synthesized peptides, cLNs, splenic DCs, and BMDCs were treated with the 6 peptides for 2 hours in RPMI 1640 medium. After incubation with peptides, the cells were harvested, washed and stained with anti-mouse CD11c^+ APC-conjugated Ab (eBioscience, Clone: N418, 170114-82) and streptavidin-AF488. Cells were FACS analyzed by gating upon the CD11c^+ cell population, and the results are depicted in FIGS. 6 and 7.

[2] = tested on: cervical lymph node cells, splenic dendritic cells, and bone marrow-derived dendritic cell; assay: Cellular uptake of DC-targeting peptides in lymph node cells, splenic DCs and BMDCs (FACS); type: cell-based, mice; conditions: biotinylated peptides, 2 hours, FACS gated on CD11c+
Protocol: as §1, §2

[3] = tested on: CD11c^+ cells from cervical lymph nodes; assay: In vivo dendritic cell targeting after intranasal administration; design: species or system BALB/c mice; conditions: 6.5 hours post-inoculation, compared to scrambled-peptide negative control
Protocol: The peptide at appropriate concentrations in a total volume of 10 μl/nostril was given intranasally to BALB/c mice. A scrambled peptide previously shown to be nonspecific to DCs was used as a negative control. At 6.5 hours post-inoculation, mice were sacrificed, and their cLNs were harvested. Single-cell suspensions were prepared by gently tearing the LN capsule. After gentle washing in 1×PBS, cells were stained with anti-mouse CD11c^+ APC-conjugated Ab (eBioscience, Clone: N418, 170114-82) and streptavidin-AF488, and FACS analysis was performed.

[4] = tested on: TC-1 cells; assay: Efficacy of E7ΔNLS as tumor antigen in TC-1 tumor-bearing mice; type: in vivo, C57BL/6 mice; conditions: peritumoral injection three times at intervals of five days; 4 μg FlaB, 10 μg E7FL, 8 μg E7ΔNLS alone or combined
Protocol: Female SPF C57BL/6 mice 7 to 8 weeks old were purchased from ORIENT (Seongnam-si, Gyeonggi-do, Korea). TC-1 cells were cultured in RPMI 1640 medium supplemented with 10% heat-inactivated FIBS, 100 units/ml penicillin, and 100 μg/ml streptomycin at 37° C. under 5% CO2. Tumors were established in mice by subcutaneous injection of 5×10^4 TC-1 cells in 100 μl of PBS into the right mid-flank of each mouse. […] Tumor growth was monitored every three days. The tumor volume was calculated with formula V=(tumor length)×(tumor width)×(tumor height)/2.

[5] = target: T1, TLR5 (Homo sapiens, UniProt O60602); type: cell-based; conditions: HEK-Blue hTLR5 cells
T1 construct: host or cells: HEK-Blue hTLR5 cells (HEK293-derived reporter line, own knowledge: stably transfected with the human TLR5 gene and an NF-kB-inducible SEAP reporter)
Protocol: Also, the EC50 was calculated using triplicate OD 620 nm values for each protein concentration over a wide range of protein concentrations (0.0375 nM-19.29 nM at the AAT Bioquest website).

[6] = tested on: Bone marrow-derived dendritic cells (BMDCs); assay: Cellular uptake of EF and DEF in BMDCs (flow cytometry); type: cell-based, C57BL/6 mice; conditions: 2 hours, anti-FlaB staining, FACS gated on CD11c+
Protocol: Cells treated with PBS alone were used as a negative control. After incubation, the cells were washed twice with cold 1×PBS containing 3% FBS and then stained with anti-mouse CD11c^+ antibody (eBioscience, Clone: N418, 25-0114-82) for 1 hour at 4° C. and fixed with 4% paraformaldehyde (T&I, BPP-9004) for 10 minutes at room temperature. The cells were permeabilized using a permeabilization kit according to the manufacturer's instructions (Invitrogen, 00-8333-56) and stained with anti-FlaB antibodies, followed by FACS analysis by gating upon the CD11c^+ population. The results are depicted in FIG. 14.

[7] = tested on: Bone marrow-derived dendritic cells (BMDCs); assay: Antigen-presenting cell activation (CD80 and CD86 on BMDC surface); type: cell-based, C57BL/6 mice; conditions: 0.5 μg/ml, 24 hours
From the text: The cells were stained on ice with fluorophore-labeled antibodies before flow cytometry analysis.

T1 sequence (O60602 21-858): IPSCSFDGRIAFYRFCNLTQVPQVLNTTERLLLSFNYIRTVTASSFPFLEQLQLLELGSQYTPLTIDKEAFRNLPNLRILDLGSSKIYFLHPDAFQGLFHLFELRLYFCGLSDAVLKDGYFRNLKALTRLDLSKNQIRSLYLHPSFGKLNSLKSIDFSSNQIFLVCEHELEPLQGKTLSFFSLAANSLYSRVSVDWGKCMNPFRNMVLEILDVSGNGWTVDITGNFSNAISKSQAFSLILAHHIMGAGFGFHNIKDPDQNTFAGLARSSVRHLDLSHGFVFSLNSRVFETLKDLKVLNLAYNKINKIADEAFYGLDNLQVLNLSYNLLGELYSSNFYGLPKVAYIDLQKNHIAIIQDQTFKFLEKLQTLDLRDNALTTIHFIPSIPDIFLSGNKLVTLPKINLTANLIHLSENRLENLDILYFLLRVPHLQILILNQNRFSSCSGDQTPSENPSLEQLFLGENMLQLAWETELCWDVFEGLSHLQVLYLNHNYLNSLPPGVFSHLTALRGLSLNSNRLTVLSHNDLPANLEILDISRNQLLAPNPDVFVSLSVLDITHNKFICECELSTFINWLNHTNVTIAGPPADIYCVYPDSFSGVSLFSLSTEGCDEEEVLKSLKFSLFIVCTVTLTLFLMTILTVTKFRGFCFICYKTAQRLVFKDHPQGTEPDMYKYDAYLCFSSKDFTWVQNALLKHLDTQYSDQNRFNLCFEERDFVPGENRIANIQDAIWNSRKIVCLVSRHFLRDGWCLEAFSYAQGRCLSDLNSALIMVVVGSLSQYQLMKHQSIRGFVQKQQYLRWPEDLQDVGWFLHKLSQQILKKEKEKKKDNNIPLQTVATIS

Row | Molecule | targeting ability / cellular uptake of the peptides by bone marrow-derived dendritic cells (FIG. 6) [1] | cellular uptake in cervical lymph node cells, splenic dendritic cells and BMDCs (FIG. 7) [2] | further results
1 | DCpep6: RFFCLGPLGFTKVD, SEQ ID NO: 6; dendritic cell-targeting peptide discovered by in vivo biopanning (peptide 6, and DCpep6) | efficiently targeted; also recorded: remarkably higher efficiency | remarkably higher specific signals | cellular uptake in cervical lymph node cells, splenic dendritic cells and BMDCs (FIG. 7) ([2]; listed as DCpep 6): increased cellular uptake; localization of peptide in cervical lymph node cells (FIG. 8) [3]: clearly localized in the cytoplasm of CD11c^+ cells
2 | DCpep 3: SPACLDLGLVPWKI, SEQ ID NO: 9; dendritic cell-targeting peptide, Arg replaced by Lys for biotinylation (SPACLDLGLVPWK(Biotin)I) | efficiently targeted | increased cellular uptake | 
3 | DCpep 4: VDLYPCYTFHSKVV, SEQ ID NO: 10; dendritic cell-targeting peptide, Arg replaced by Lys for biotinylation (VDLYPCYTFHSK(Biotin)VV; not fully specified) | efficiently targeted | increased cellular uptake | 
4 | B1 |  |  | tumor suppression (tumor volume, FIGS. 11 and 12) [4]: did not manifest any suppressive effect
5 | B2 |  |  | NF-κB activity levels (FIG. 13) [5]: increased the activity in dose-dependent manners; cellular uptake in bone marrow-derived dendritic cells (FIG. 14) [6]: scarcely detected; expression of CD80 and CD86 on BMDC surface (FIG. 20) [7]: no statistical significance

— patent US20240207380A1, “NOVEL PEPTIDE TARGETING DENDRITIC CELLS, AND COMPOSITION FOR TREATING CANCER COMPRISING SAME” (INDUSTRY FOUNDATION OF CHONNAM NATIONAL UNIVERSITY, priority 2021, published 2024)
